Test results published in patent publication US20020061840A1, “Tripeptide compounds useful as selective inhibitors of aminopeptidase A and corresponding pharmaceutical compositions” (priority 2000, published 2002).

These compounds were tested against T1, Aminopeptidase N (Sus scrofa, UniProt P15145) (assay: In vitro inhibiting power on aminopeptidase N (Ala-Na substrate)). Conditions: APN purified from pig's kidney, 200 μM Ala-Na, 37° C., Tris HCl pH 7.4.
T1 construct: Aminopeptidase N purified from pig's kidney; purchased Böehringer Mannheim (Meylan, France); host or cells: pig's kidney
T1 sequence (P15145 1-963): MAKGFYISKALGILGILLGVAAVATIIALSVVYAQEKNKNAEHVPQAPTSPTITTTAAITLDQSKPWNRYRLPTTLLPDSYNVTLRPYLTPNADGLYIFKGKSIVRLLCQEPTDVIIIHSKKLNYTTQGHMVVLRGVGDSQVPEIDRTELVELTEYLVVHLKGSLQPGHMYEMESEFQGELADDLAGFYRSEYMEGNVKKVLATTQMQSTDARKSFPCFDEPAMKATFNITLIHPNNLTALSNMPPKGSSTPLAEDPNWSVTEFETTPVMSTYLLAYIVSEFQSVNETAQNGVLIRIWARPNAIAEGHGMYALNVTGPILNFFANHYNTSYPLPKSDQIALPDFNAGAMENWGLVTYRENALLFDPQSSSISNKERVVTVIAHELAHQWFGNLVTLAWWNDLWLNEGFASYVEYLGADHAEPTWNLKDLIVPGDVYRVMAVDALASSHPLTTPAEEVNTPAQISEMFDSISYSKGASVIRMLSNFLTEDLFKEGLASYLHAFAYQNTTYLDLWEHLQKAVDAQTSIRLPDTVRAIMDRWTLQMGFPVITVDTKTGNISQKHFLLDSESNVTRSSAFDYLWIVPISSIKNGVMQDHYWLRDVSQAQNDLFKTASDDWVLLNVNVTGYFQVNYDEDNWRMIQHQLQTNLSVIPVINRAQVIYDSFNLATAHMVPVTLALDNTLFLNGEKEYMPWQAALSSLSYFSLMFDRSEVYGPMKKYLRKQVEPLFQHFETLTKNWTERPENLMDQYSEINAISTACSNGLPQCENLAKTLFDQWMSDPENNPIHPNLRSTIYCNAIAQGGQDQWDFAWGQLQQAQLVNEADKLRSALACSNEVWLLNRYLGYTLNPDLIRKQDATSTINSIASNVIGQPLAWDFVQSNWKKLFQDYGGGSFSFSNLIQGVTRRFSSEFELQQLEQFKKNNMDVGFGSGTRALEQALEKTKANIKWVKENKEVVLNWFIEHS
Type: biochemical
Method: b)) In vitro study of the inhibiting power of the synthesised compounds on aminopeptidase N.
1°) Source of the Enzyme.
Aminopeptidase N purified from pig's kidney is marketed by Böehringer Mannheim (Meylan, France).
The APN is incubated for 10 min at 37° C. in the absence or in the presence of increasing concentrations of inhibitors in a total volume of 100 μl in Tris HCl buffer (50 mM, pH =7.4. 200 μM of Ala-Na are added and the whole thing is incubated for 30 min at 37° C. The reaction is stopped by the addition of 10 μl of CH3COO—Na 1M (pH=4.2). The absorption is measured at 400 nm and compared with that of a standard range of 2-naphthyiamine.
For CCC(C)C(NC(=O)C(S)C(N)CCS(=O)(=O)O)C(=O)NC(CCC(=O)O)C(N)=O (single isomer, unassigned) [Example 8A], the Ki was over 50 µM. In the case of CC[C@H](C)[C@H](NC(=O)[C@@H](S)[C@H](N)CCC(=O)O)C(=O)N1CC[C@@H](C(=O)O)[C@H]1C(=O)O [Example 3A, [[(2S ,3R)-3-amino-5-carboxy-2-mercapto]pentanoyl]-LIIe-L.(3R)(3-COOH)Pro-OH], the Ki is reported as over 5 µM. In the case of CC[C@H](C)[C@H](NC(=O)[C@H](S)[C@H](N)CCC(=O)O)C(=O)N1CC[C@@H](C(=O)O)[C@H]1C(=O)O [Example 3B, [[(2R,3R), 3-amino-5-carboxy-2-mercapto]-pentanoyl]-L.IIe-L.(3R)(3-COOH)Pro-OH], the Ki is reported as over 5 µM. Compound CCC(C)C(NC(=O)C(S)C(N)CCP(=O)(O)O)C(=O)NC(CCC(=O)O)C(=O)O (single isomer, unassigned) [Example 4A] has a Ki of over 5 µM. CCC(C)C(NC(=O)C(S)C(N)CCS(=O)(=O)O)C(=O)NC(CCC(=O)O)C(N)=O (single isomer, unassigned) [Example 8B] gave a Ki of over 50 µM. For CCC(C)C(NC(=O)C(S)C(N)CCP(=O)(O)O)C(=O)NC(CCC(=O)O)C(=O)O (single isomer, unassigned) [Example 4B], the Ki was over 5 µM.
